{
  "source": "the OligoGym collection",
  "note": "Oligonucleotides are given in HELM: sugar(base)linkage, 5' to 3'; d 2'-deoxyribose, r ribose, m 2'-O-methylribose, p phosphate. ss, as = sense and antisense strand; further: test concentration or dose not given here",
  "data": [
    {"biological_target": "CDC34", "assay": "reporter assay of Huesken 2005", "conditions": "siRNA", "units": {"normalised inhibition (eCFP-eYFP dual reporter)": "%"}, "values": [
      {"substance": "RNA1{r(C)p.r(C)p.r(U)p.r(C)p.r(C)p.r(U)p.r(G)p.r(A)p.r(A)p.r(C)p.r(G)p.r(A)p.r(G)p.r(C)p.r(C)p.r(C)p.r(A)p.r(A)p.r(C)p.d(T)p.d(T)}|RNA2{r(G)p.r(U)p.r(U)p.r(G)p.r(G)p.r(G)p.r(C)p.r(U)p.r(C)p.r(G)p.r(U)p.r(U)p.r(C)p.r(A)p.r(G)p.r(G)p.r(A)p.r(G)p.r(G)p.d(G)p.d(A)}$$$RNA1{StrandType:ss}|RNA2{StrandType:as}$", "normalised inhibition (eCFP-eYFP dual reporter)": 68.2},
      {"substance": "RNA1{r(C)p.r(A)p.r(A)p.r(G)p.r(G)p.r(C)p.r(G)p.r(C)p.r(C)p.r(G)p.r(G)p.r(C)p.r(G)p.r(C)p.r(C)p.r(C)p.r(G)p.r(A)p.r(C)p.d(T)p.d(T)}|RNA2{r(G)p.r(U)p.r(C)p.r(G)p.r(G)p.r(G)p.r(C)p.r(G)p.r(C)p.r(C)p.r(G)p.r(G)p.r(C)p.r(G)p.r(C)p.r(C)p.r(U)p.r(U)p.r(G)p.d(G)p.d(T)}$$$RNA1{StrandType:ss}|RNA2{StrandType:as}$", "normalised inhibition (eCFP-eYFP dual reporter)": 26.8},
      {"substance": "RNA1{r(A)p.r(G)p.r(C)p.r(A)p.r(A)p.r(G)p.r(G)p.r(G)p.r(G)p.r(A)p.r(A)p.r(G)p.r(G)p.r(A)p.r(U)p.r(C)p.r(G)p.r(G)p.r(G)p.d(T)p.d(T)}|RNA2{r(C)p.r(C)p.r(C)p.r(G)p.r(A)p.r(U)p.r(C)p.r(C)p.r(U)p.r(U)p.r(C)p.r(C)p.r(C)p.r(C)p.r(U)p.r(U)p.r(G)p.r(C)p.r(U)p.d(C)p.d(T)}$$$RNA1{StrandType:ss}|RNA2{StrandType:as}$", "normalised inhibition (eCFP-eYFP dual reporter)": 41.2},
      {"substance": "RNA1{r(C)p.r(C)p.r(U)p.r(C)p.r(U)p.r(U)p.r(C)p.r(U)p.r(A)p.r(C)p.r(G)p.r(A)p.r(C)p.r(G)p.r(A)p.r(C)p.r(U)p.r(A)p.r(C)p.d(T)p.d(T)}|RNA2{r(G)p.r(U)p.r(A)p.r(G)p.r(U)p.r(C)p.r(G)p.r(U)p.r(C)p.r(G)p.r(U)p.r(A)p.r(G)p.r(A)p.r(A)p.r(G)p.r(A)p.r(G)p.r(G)p.d(T)p.d(C)}$$$RNA1{StrandType:ss}|RNA2{StrandType:as}$", "normalised inhibition (eCFP-eYFP dual reporter)": 82.7},
      {"substance": "RNA1{r(G)p.r(G)p.r(A)p.r(A)p.r(G)p.r(C)p.r(A)p.r(G)p.r(G)p.r(U)p.r(C)p.r(C)p.r(U)p.r(G)p.r(G)p.r(G)p.r(G)p.r(A)p.r(C)p.d(T)p.d(T)}|RNA2{r(G)p.r(U)p.r(C)p.r(C)p.r(C)p.r(C)p.r(A)p.r(G)p.r(G)p.r(A)p.r(C)p.r(C)p.r(U)p.r(G)p.r(C)p.r(U)p.r(U)p.r(C)p.r(C)p.d(G)p.d(G)}$$$RNA1{StrandType:ss}|RNA2{StrandType:as}$", "normalised inhibition (eCFP-eYFP dual reporter)": 58.4},
      {"substance": "RNA1{r(A)p.r(G)p.r(G)p.r(U)p.r(G)p.r(G)p.r(A)p.r(A)p.r(C)p.r(C)p.r(C)p.r(C)p.r(A)p.r(C)p.r(G)p.r(C)p.r(A)p.r(G)p.r(A)p.d(T)p.d(T)}|RNA2{r(U)p.r(C)p.r(U)p.r(G)p.r(C)p.r(G)p.r(U)p.r(G)p.r(G)p.r(G)p.r(G)p.r(U)p.r(U)p.r(C)p.r(C)p.r(A)p.r(C)p.r(C)p.r(U)p.d(C)p.d(T)}$$$RNA1{StrandType:ss}|RNA2{StrandType:as}$", "normalised inhibition (eCFP-eYFP dual reporter)": 72.6},
      {"substance": "RNA1{r(G)p.r(A)p.r(C)p.r(G)p.r(A)p.r(G)p.r(G)p.r(G)p.r(C)p.r(G)p.r(A)p.r(U)p.r(C)p.r(U)p.r(A)p.r(U)p.r(A)p.r(C)p.r(A)p.d(T)p.d(T)}|RNA2{r(U)p.r(G)p.r(U)p.r(A)p.r(U)p.r(A)p.r(G)p.r(A)p.r(U)p.r(C)p.r(G)p.r(C)p.r(C)p.r(C)p.r(U)p.r(C)p.r(G)p.r(U)p.r(C)p.d(C)p.d(A)}$$$RNA1{StrandType:ss}|RNA2{StrandType:as}$", "normalised inhibition (eCFP-eYFP dual reporter)": 64.3},
      {"substance": "RNA1{r(G)p.r(A)p.r(C)p.r(C)p.r(A)p.r(U)p.r(U)p.r(C)p.r(U)p.r(C)p.r(C)p.r(U)p.r(G)p.r(A)p.r(G)p.r(U)p.r(G)p.r(U)p.r(G)p.d(T)p.d(T)}|RNA2{r(C)p.r(A)p.r(C)p.r(A)p.r(C)p.r(U)p.r(C)p.r(A)p.r(G)p.r(G)p.r(A)p.r(G)p.r(A)p.r(A)p.r(U)p.r(G)p.r(G)p.r(U)p.r(C)p.d(C)p.d(T)}$$$RNA1{StrandType:ss}|RNA2{StrandType:as}$", "normalised inhibition (eCFP-eYFP dual reporter)": 44.9},
      {"substance": "RNA1{r(G)p.r(G)p.r(G)p.r(C)p.r(G)p.r(G)p.r(C)p.r(U)p.r(A)p.r(C)p.r(U)p.r(U)p.r(C)p.r(A)p.r(A)p.r(G)p.r(G)p.r(C)p.r(G)p.d(T)p.d(T)}|RNA2{r(C)p.r(G)p.r(C)p.r(C)p.r(U)p.r(U)p.r(G)p.r(A)p.r(A)p.r(G)p.r(U)p.r(A)p.r(G)p.r(C)p.r(C)p.r(G)p.r(C)p.r(C)p.r(C)p.d(T)p.d(C)}$$$RNA1{StrandType:ss}|RNA2{StrandType:as}$", "normalised inhibition (eCFP-eYFP dual reporter)": 29.8},
      {"substance": "RNA1{r(C)p.r(G)p.r(C)p.r(C)p.r(U)p.r(C)p.r(C)p.r(G)p.r(U)p.r(G)p.r(A)p.r(U)p.r(G)p.r(U)p.r(A)p.r(C)p.r(A)p.r(G)p.r(G)p.d(T)p.d(T)}|RNA2{r(C)p.r(C)p.r(U)p.r(G)p.r(U)p.r(A)p.r(C)p.r(A)p.r(U)p.r(C)p.r(A)p.r(C)p.r(G)p.r(G)p.r(A)p.r(G)p.r(G)p.r(C)p.r(G)p.d(T)p.d(C)}$$$RNA1{StrandType:ss}|RNA2{StrandType:as}$", "normalised inhibition (eCFP-eYFP dual reporter)": 36.4},
      {"substance": "RNA1{r(U)p.r(G)p.r(G)p.r(C)p.r(A)p.r(C)p.r(C)p.r(C)p.r(U)p.r(A)p.r(A)p.r(C)p.r(A)p.r(U)p.r(C)p.r(U)p.r(A)p.r(C)p.r(G)p.d(T)p.d(T)}|RNA2{r(C)p.r(G)p.r(U)p.r(A)p.r(G)p.r(A)p.r(U)p.r(G)p.r(U)p.r(U)p.r(A)p.r(G)p.r(G)p.r(G)p.r(U)p.r(G)p.r(C)p.r(C)p.r(A)p.d(C)p.d(A)}$$$RNA1{StrandType:ss}|RNA2{StrandType:as}$", "normalised inhibition (eCFP-eYFP dual reporter)": 25.1},
      {"substance": "RNA1{r(G)p.r(A)p.r(G)p.r(U)p.r(A)p.r(C)p.r(U)p.r(G)p.r(C)p.r(G)p.r(U)p.r(G)p.r(A)p.r(A)p.r(G)p.r(A)p.r(C)p.r(C)p.r(A)p.d(T)p.d(T)}|RNA2{r(U)p.r(G)p.r(G)p.r(U)p.r(C)p.r(U)p.r(U)p.r(C)p.r(A)p.r(C)p.r(G)p.r(C)p.r(A)p.r(G)p.r(U)p.r(A)p.r(C)p.r(U)p.r(C)p.d(G)p.d(G)}$$$RNA1{StrandType:ss}|RNA2{StrandType:as}$", "normalised inhibition (eCFP-eYFP dual reporter)": 73.7},
      {"substance": "RNA1{r(C)p.r(G)p.r(A)p.r(G)p.r(G)p.r(G)p.r(C)p.r(G)p.r(A)p.r(U)p.r(C)p.r(U)p.r(A)p.r(U)p.r(A)p.r(C)p.r(A)p.r(A)p.r(C)p.d(T)p.d(T)}|RNA2{r(G)p.r(U)p.r(U)p.r(G)p.r(U)p.r(A)p.r(U)p.r(A)p.r(G)p.r(A)p.r(U)p.r(C)p.r(G)p.r(C)p.r(C)p.r(C)p.r(U)p.r(C)p.r(G)p.d(T)p.d(C)}$$$RNA1{StrandType:ss}|RNA2{StrandType:as}$", "normalised inhibition (eCFP-eYFP dual reporter)": 72.7},
      {"substance": "RNA1{r(A)p.r(A)p.r(C)p.r(G)p.r(U)p.r(G)p.r(G)p.r(A)p.r(C)p.r(G)p.r(C)p.r(C)p.r(U)p.r(C)p.r(C)p.r(G)p.r(U)p.r(G)p.r(A)p.d(T)p.d(T)}|RNA2{r(U)p.r(C)p.r(A)p.r(C)p.r(G)p.r(G)p.r(A)p.r(G)p.r(G)p.r(C)p.r(G)p.r(U)p.r(C)p.r(C)p.r(A)p.r(C)p.r(G)p.r(U)p.r(U)p.d(T)p.d(G)}$$$RNA1{StrandType:ss}|RNA2{StrandType:as}$", "normalised inhibition (eCFP-eYFP dual reporter)": 55.2}
    ]}
  ]
}
